Experimental data: patent publication US6399618B1, “Compositions and methods for modulating sexual activity” (priority 1997, dated 2002)
Where a name gives a salt, the structure may show the parent alone. Marks after values point to notes of the source that are not given here.

Columns and labels:
male primates [1] = assay: Sexual behavior in male primates, paired observation study (penile response grades); assay type: in vivo, macaca fascilaris; conditions: 1.0 mg/kg ip; N=3; observed 1 hour
Procedure: Monkeys used for testing were separated from the cluster of cages and treated and observed in pairs in the middle of the housing environment.
N=3 for all drug-treated animals, while N=18 for saline-treated animals. […] Data are expressed as the number of test animals having a particular grade of penile response. Penile responses were scored every 10 sec for 1 hour according to the following scale:
Grade 0=glans are hidden from the view
Grade 1=glans are clearly visible
Grade 2=penis is extended
Grade 4=erection with masturbation
Grade 5=erection with masturbation and ejaculation

[2] = system: noradrenaline pre-contracted rabbit CC; assay: Direct action on penile erection: tone of corpus cavernosal muscle strips in organ bath; conditions: concentration from 10^-8 M to 10^-4 M; n=6
Procedure: Corpus cavernosal (CC) muscle strips were prepared from penises obtained from rabbit (n=6). CC strips were dissected free from tunica albungia and mounted in 10 or 25 mL organ baths containing Tyrode solution saturated with 95%O2/5% CO2 mixture.

male rats [3] = assay: Rat sexual behavior, proerectile actions (injected); assay type: in vivo, SD rats; conditions: for Erections/60 minutes / Latency to the first erection: mean±sem; for Erections/60 minutes / Latency to the first erection / Responders: n=10
Procedure: Male SD rats (350-450 g; n=10 per group) were injected with increasing doses of XVIb (4.0-64.0 mg/kg), XVIa (1.0, 4.0 or 16 mg/kg) or saline and observed 5 minutes later, in groups of 5, for the number of erections and the time to the first erection, over a 60 minutes observation period.
In Table 2, the effects of XVIb, XVIa and saline on erection in male rats is indicated. Data is expressed as the mean±sem for 10 test animals. Data marked with an asterisk “*” indicate significant difference from saline (α<0.05) as determined by ANOVA with Tukey test for multiple comparisons.

male rats [4] = assay: Rat behavior, blood chemistry and body temperature; assay type: in vivo, SD rats
Procedure: Male SD rats (350-450 g; n=15 per group) were injected with a single dose of XVIb (16 mg/kg, ip) and saline and observed 5 minutes later, in pairs, for erections, ejaculation, movement and grooming over a 60 minute observation period. Rectal temperature was recorded before drug administration and 1 hour after drug administration. At the end of experiments rats were decapitated and trunk blood was collected for RIA analysis of serum cortisol and prolactin levels.

male primates [5] = assay: Primate sexual behavior, isolated observation study; assay type: in vivo, Macaca fascilaris; conditions: for # of behavioral Purse Lip Gesture / # of behavioral Yawning / Grade 0 (glans hidden from view) / Grade 1 (glans clearly visible) / Grade 2 (penis extended) / Grade 3 (full erection) / Grade 4 (erection with masturbation) / Grade 5 (erection with masturbation and ejaculation): isolation, 1 hour, n=6
Procedure: Adult male Macaca fascilaris (3.8-8 kg, n=6) were injected (0.1-10.0 mg/kg; ip; 0.5 mL/kg body weight) with either saline or compound XVIb and observed 10 minutes later for behavioral responses and locomotion for 1 hour. Monkeys used for testing were injected and observed in separate locations remote from housing environment. Each monkey received a dose of XVIb at 72 hour intervals.
In Table 4, the effect of compound XVIb on erectile responses is reported for male primates observed in isolation. Data are expressed as mean (sem, standard error of measurements) for 6 test animals. Penile responses were scored every 10 seconds for 1 hour according to the following scale: Grade 0=glans hidden from view, Grade 1=glans clearly visible, Grade 2=penis extended, Grade 3=full erection, Grade 4=erection with masturbation, Grade 5=erection with masturbation and ejaculation. In Table 4, data marked with an asterisk “*” indicate a significant difference from saline as determined by repeated measures ANOVA and Dunnetts test for multiple comparisons (α<0.05). The data in Table 4 are reported as % genital observations.

[6] = 16 mg/kg ip, RIA of trunk blood at end of experiment

CN1CCN(C(=O)Cc2ccc3ccccc3c2)CC1 [Compound XVIb, 1-Methyl-4(2-naphthaleneacetyl)piperazine monohydrochloride]
number of test animals having Grade 0 penile response (glans are hidden from the view) (male primates [1]): 1
number of test animals having Grade 1 penile response (glans are clearly visible) (male primates [1]): 2
number of test animals having Grade 2 penile response (penis is extended) (male primates [1]): 2
number of test animals having Grade 3 penile response (full erection) (male primates [1]): 2
number of test animals having Grade 4 penile response (erection with masturbation) (male primates [1]): 1
number of test animals having Grade 5 penile response (erection with masturbation and ejaculation) (male primates [1]): 0
effect on tone of noradrenaline pre-contracted rabbit CC [2]: failed to reduce tone
Erections/60 minutes (male rats [3]; 4.0 mg/kg): 2.1 ± 0.4
Latency to the first erection (male rats [3]; 4.0 mg/kg): 2390 ± 238 s
Responders (male rats [3]; 4.0 mg/kg): 100%
Erections/60 minutes (male rats [3]; 8.0 mg/kg): 5.1 ± 0.6* #
Latency to the first erection (male rats [3]; 8.0 mg/kg): 1299 ± 214 s
Responders (male rats [3]; 8.0 mg/kg): 100%
Erections/60 minutes (male rats [3]; 16.0 mg/kg): 7.7 ± 0.4* #
Latency to the first erection (male rats [3]; 16.0 mg/kg): 654 ± 108* sec
Responders (male rats [3]; 16.0 mg/kg): 100%
Erections/60 minutes (male rats [3]; 32.0 mg/kg): 2.5 ± 0.2
Latency to the first erection (male rats [3]; 32.0 mg/kg): 1046 ± 64* sec
Responders (male rats [3]; 32.0 mg/kg): 100%
Erections/60 minutes (male rats [3]; 64.0 mg/kg): 2.7 ± 0.5
Latency to the first erection (male rats [3]; 64.0 mg/kg): 3319 ± 170* sec
Responders (male rats [3]; 64.0 mg/kg): 100%
effect on penile erections (in words) (male rats [3]; 60 minutes observation): produced erections in rats in a bell shaped dose-response fashion
dose at which the maximal effect on erections was observed (male rats [3]; doses 4.0-64.0 mg/kg): 16 mg/kg
dose with minimal time to the first erection (male rats [3]; doses 4.0-64.0 mg/kg): 16 mg/kg
Serum cortisol (male rats [4]; [6]): not significantly altered
Serum prolactin (male rats [4]; [6]): not significantly altered
Rearing (male rats [4]; 16 mg/kg ip, n=15): 77±5.9 rears/60 minutes
erections (male rats [4]; 16 mg/kg ip, n=15): 5.6±0.7 erections/60 minutes
locomotion (male rats [4]; 16 mg/kg ip, n=15): 20.7±3.3 moves
non-penile grooming (male rats [4]; 16 mg/kg ip, n=15): 22±4.8 grooms/60 minutes
penile grooming (male rats [4]; 16 mg/kg ip, n=15): 12.1±3.3 grooms/60 minutes
ejaculations (male rats [4]; 16 mg/kg ip, n=15, 60 minute observation): 1.8±0.1 ejaculations
Rectal temperature (male rats [4]; 16 mg/kg, before and 1 hour after drug administration): not significantly altered
# of behavioral Purse Lip Gesture (male primates [5]; 0.1 mg/kg ip): 5.8 ± 3.9 #
# of behavioral Yawning (male primates [5]; 0.1 mg/kg ip): 8.8 ± 4.5 #
Grade 0 (glans hidden from view) (male primates [5]; 0.1 mg/kg ip): 81.8 ± 8.2 % genital observations
Grade 1 (glans clearly visible) (male primates [5]; 0.1 mg/kg ip): 17.8 ± 7.9 % genital observations
Grade 2 (penis extended) (male primates [5]; 0.1 mg/kg ip): 0.4 ± 0.3 % genital observations
Grade 3 (full erection) (male primates [5]; 0.1 mg/kg ip): 0 ± 0 % genital observations
Grade 4 (erection with masturbation) (male primates [5]; 0.1 mg/kg ip): 0 ± 0 % genital observations
Grade 5 (erection with masturbation and ejaculation) (male primates [5]; 0.1 mg/kg ip): 0 ± 0 % genital observations
# of behavioral Purse Lip Gesture (male primates [5]; 0.3 mg/kg ip): 10.2 ± 3.9 #
# of behavioral Yawning (male primates [5]; 0.3 mg/kg ip): 11.7 ± 3.8 #
Grade 0 (glans hidden from view) (male primates [5]; 0.3 mg/kg ip): 67.3 ± 12.2 % genital observations
Grade 1 (glans clearly visible) (male primates [5]; 0.3 mg/kg ip): 32.8 ± 11.5 % genital observations
Grade 2 (penis extended) (male primates [5]; 0.3 mg/kg ip): 0.5 ± 0.5 % genital observations
Grade 3 (full erection) (male primates [5]; 0.3 mg/kg ip): 0 ± 0 % genital observations
Grade 4 (erection with masturbation) (male primates [5]; 0.3 mg/kg ip): 0 ± 0 % genital observations
Grade 5 (erection with masturbation and ejaculation) (male primates [5]; 0.3 mg/kg ip): 0 ± 0 % genital observations
# of behavioral Purse Lip Gesture (male primates [5]; 1.0 mg/kg ip): 7.5 ± 3.4 #
# of behavioral Yawning (male primates [5]; 1.0 mg/kg ip): 11.3 ± 2.5 #
Grade 0 (glans hidden from view) (male primates [5]; 1.0 mg/kg ip): 72.0 ± 12.0 % genital observations
Grade 1 (glans clearly visible) (male primates [5]; 1.0 mg/kg ip): 26.6 ± 10.6 % genital observations
Grade 2 (penis extended) (male primates [5]; 1.0 mg/kg ip): 1.4 ± 1.4 % genital observations
Grade 3 (full erection) (male primates [5]; 1.0 mg/kg ip): 0 ± 0 % genital observations
Grade 4 (erection with masturbation) (male primates [5]; 1.0 mg/kg ip): 0 ± 0 % genital observations
Grade 5 (erection with masturbation and ejaculation) (male primates [5]; 1.0 mg/kg ip): 0 ± 0 % genital observations
# of behavioral Purse Lip Gesture (male primates [5]; 3.0 mg/kg ip): 14.0 ± 8.3 #
# of behavioral Yawning (male primates [5]; 3.0 mg/kg ip): 13 ± 3.4 #
Grade 0 (glans hidden from view) (male primates [5]; 3.0 mg/kg ip): 56.8 ± 7.8 % genital observations
Grade 1 (glans clearly visible) (male primates [5]; 3.0 mg/kg ip): 42.1 ± 8.3 % genital observations
Grade 2 (penis extended) (male primates [5]; 3.0 mg/kg ip): 1.7 ± 1.4 % genital observations
Grade 3 (full erection) (male primates [5]; 3.0 mg/kg ip): 0.3 ± 0.3 % genital observations
Grade 4 (erection with masturbation) (male primates [5]; 3.0 mg/kg ip): 0 ± 0 % genital observations
Grade 5 (erection with masturbation and ejaculation) (male primates [5]; 3.0 mg/kg ip): 0 ± 0 % genital observations
# of behavioral Purse Lip Gesture (male primates [5]; 10.0 mg/kg ip): 33 ± 14* #
# of behavioral Yawning (male primates [5]; 10.0 mg/kg ip): 14.0 ± 4.0 #
Grade 0 (glans hidden from view) (male primates [5]; 10.0 mg/kg ip): 24.5 ± 7.6 % genital observations
Grade 1 (glans clearly visible) (male primates [5]; 10.0 mg/kg ip): 72.1 ± 7.7* % genital observations
Grade 2 (penis extended) (male primates [5]; 10.0 mg/kg ip): 2.5 ± 1.0 % genital observations
Grade 3 (full erection) (male primates [5]; 10.0 mg/kg ip): 0.9 ± 0.6 % genital observations
Grade 4 (erection with masturbation) (male primates [5]; 10.0 mg/kg ip): 0 ± 0 % genital observations
Grade 5 (erection with masturbation and ejaculation) (male primates [5]; 10.0 mg/kg ip): 0 ± 0 % genital observations
grade 1 penile erections (in words) (male primates [5]; 0.1-10 mg/kg, primates observed in isolation, significance only at the highest dose): dose dependently (0.1-10 mg/kg) increased grade 1 penile erections
Advanced grades of penile erection (grades 2-5) (in words) (male primates [5]; any dose (0.1-10 mg/kg)): not significantly affected at any dose
